Results published in patent US4254056A, “2-Aminomethyl phenol derivative and process for preparing thereof” (Ono Pharmaceutical Co., Ltd., priority 1977, dated 1981).

Assays:
[1] = Diuretic effect on rats: urinary volume during a 5 hour period after oral administration; assay type: in vivo, Wister male rats; conditions: 3 mg/kg oral; for Urine discharge (in words): Wister male rats; for Urinary volume relative to control: starved rats, 5 hour period after administration, control taken as 100%
Experimental: About 16 hours before oral administration with 3 mg/kg of the compounds, the rats were starved, with only water available. The urinary volume during a 5 hour period after administration was compared with that of the control groups, taking the urinary volume of the latter as 100%.

[2] = tested on: Carrageenan-Induced Edema in Rat Paws; assay: Anti-inflammatory effect on carrageenan-induced edema in rat paws (oral); assay type: in vivo, Wister male rats; conditions: for % Inhibition of Foot Edema: 1 hour before carrageenan, swelling at third hour, control taken as 100%; for Inhibition of carrageenan-induced edema (in words): oral, Wister male rats
Experimental: One hour after oral administration with these compounds, the rats were subcutaneously injected with 0.1 m of 1% carrageenan suspension on the plantar surface of the right hind foot. The swelling was measured at the third hour of carrageenan injection. Anti-inflammatory effect of the compounds was determined as percentage inhibition of the swelling, taking the swelling in the control groups as 100%.

Structure (SMILES) | Urine discharge (in words) [1] | Urinary volume relative to control [1] [%] | % Inhibition of Foot Edema ([2]; 10 mg/kg oral) [%] | % Inhibition of Foot Edema ([2]; 30 mg/kg oral) [%] | Inhibition of carrageenan-induced edema (in words) [2]
CC1CCc2c1cc(CN)c(O)c2I.Cl (stereo not shown) [1-Methyl-4-iodo-6-aminomethyl-5-indanol hydrochloride] | discharged increased amounts of urine | 208 | – | – | –
CN(C)Cc1cc2c(c(I)c1O)CCCC2.Cl [1-Iodo-3-(N,N-dimethylaminomethyl)-5,6,7,8-tetrahydro-2-naphthol Hydrochloride] | discharged increased amounts of urine | 232 | – | – | –
CC1(C)CCCc2c1cc(CN)c(O)c2I.Cl [1-Iodo-3-aminomethyl-5,5-dimethyl-5,6,7,8-tetrahydro-2-naphthol Hydrochloride] | – | – | 44.1 | 66.3 | had carrageenan-induced edema in their paws inhibited
Br.NCc1c(O)c(I)cc2c1CCCC2 [1-Aminomethyl-3-iodo-5,6,7,8-tetrahydro-2-naphthol Hydrobromide] | discharged increased amounts of urine | 142 | 55.6 | 68.8 | had carrageenan-induced edema in their paws inhibited
Br.NCc1cc2c(c(I)c1O)CCCC2 [1-Iodo-3-aminomethyl-5,6,7,8-tetrahydro-2-naphthol Hydrobromide] | discharged increased amounts of urine | 226 | 68.8 | 69.6 | had carrageenan-induced edema in their paws inhibited
Cl.NCc1cc2c(c(I)c1O)CCC2 [4-Iodo-6-aminomethyl-5-indanol Hydrochloride] | discharged increased amounts of urine | 138 | 41.1 | 55.8 | had carrageenan-induced edema in their paws inhibited
